The numbers were not newly measured in patent US20090306944A1, “DEVICE AND METHOD FOR CALCULATING AND SUPPLYING A DRUG DOSE” (BAYER TECHNOLOGY SERVICES GMBH, priority 2006, published 2009), which cites them from elsewhere.

Read-outs that look alike come from different tables or passages of the source.

The target of one data set is T1, CYP1A2 (Homo sapiens, UniProt P05177).
T1 sequence (P05177 1-516): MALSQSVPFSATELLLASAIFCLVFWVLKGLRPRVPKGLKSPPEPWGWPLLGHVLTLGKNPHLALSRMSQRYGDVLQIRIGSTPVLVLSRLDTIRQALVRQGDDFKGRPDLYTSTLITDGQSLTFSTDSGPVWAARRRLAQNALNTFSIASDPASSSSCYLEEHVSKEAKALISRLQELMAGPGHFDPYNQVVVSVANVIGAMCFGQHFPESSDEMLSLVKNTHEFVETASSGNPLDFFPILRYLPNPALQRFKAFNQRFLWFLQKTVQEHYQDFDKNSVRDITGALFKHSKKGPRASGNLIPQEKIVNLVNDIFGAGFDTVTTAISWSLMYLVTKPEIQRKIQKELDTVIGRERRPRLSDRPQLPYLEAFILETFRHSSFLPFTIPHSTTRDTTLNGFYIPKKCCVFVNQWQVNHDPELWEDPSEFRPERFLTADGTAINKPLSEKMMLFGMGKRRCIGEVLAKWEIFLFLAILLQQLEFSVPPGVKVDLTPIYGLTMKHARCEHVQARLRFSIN
As to conditions: proportion of overall clearance, reference value in an adult.

The conditions of data set [1]: for main binding protein in the plasma: adult.
The target in another data set is CYP2E1 (Homo sapiens, UniProt P05181). To be noted: proportion of overall clearance, reference value in an adult.
CYP2E1, sequence (P05181 whole entry): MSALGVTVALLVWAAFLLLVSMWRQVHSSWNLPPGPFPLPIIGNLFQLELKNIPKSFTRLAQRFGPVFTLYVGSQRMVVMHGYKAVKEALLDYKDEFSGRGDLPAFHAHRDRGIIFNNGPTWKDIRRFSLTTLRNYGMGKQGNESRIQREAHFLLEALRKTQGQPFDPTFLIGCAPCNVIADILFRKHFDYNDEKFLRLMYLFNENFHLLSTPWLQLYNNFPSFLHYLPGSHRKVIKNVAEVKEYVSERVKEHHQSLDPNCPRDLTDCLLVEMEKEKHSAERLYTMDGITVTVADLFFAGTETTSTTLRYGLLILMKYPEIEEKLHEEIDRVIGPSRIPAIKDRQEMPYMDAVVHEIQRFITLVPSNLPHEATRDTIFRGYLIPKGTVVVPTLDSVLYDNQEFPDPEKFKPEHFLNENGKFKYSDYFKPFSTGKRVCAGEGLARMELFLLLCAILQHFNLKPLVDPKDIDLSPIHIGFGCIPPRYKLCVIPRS
The conditions of data set [2]: intravenously administered.
The target in a further data set is UGT1A1 (Homo sapiens, UniProt P22309). As to conditions: proportion of overall clearance, reference value in an adult.
UGT1A1, sequence (P22309 26-533): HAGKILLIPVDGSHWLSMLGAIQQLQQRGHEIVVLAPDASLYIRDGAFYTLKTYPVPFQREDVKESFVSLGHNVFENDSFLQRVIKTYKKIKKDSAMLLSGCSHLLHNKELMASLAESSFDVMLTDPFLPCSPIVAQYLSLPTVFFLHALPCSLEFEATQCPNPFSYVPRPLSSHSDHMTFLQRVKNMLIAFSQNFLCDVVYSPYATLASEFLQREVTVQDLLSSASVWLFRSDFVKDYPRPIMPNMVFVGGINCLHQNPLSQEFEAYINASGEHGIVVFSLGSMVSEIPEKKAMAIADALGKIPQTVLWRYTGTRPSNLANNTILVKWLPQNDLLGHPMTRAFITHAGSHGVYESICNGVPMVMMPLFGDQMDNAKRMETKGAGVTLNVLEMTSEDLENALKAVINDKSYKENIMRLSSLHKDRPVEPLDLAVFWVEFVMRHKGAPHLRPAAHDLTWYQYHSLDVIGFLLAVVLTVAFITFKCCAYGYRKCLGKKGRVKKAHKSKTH
For data set [3] the following is noted: proportion of overall clearance, reference value in an adult.
A further data set deals with T2, UGT2B7 (Homo sapiens, UniProt P16662).
T2 sequence (P16662 24-529): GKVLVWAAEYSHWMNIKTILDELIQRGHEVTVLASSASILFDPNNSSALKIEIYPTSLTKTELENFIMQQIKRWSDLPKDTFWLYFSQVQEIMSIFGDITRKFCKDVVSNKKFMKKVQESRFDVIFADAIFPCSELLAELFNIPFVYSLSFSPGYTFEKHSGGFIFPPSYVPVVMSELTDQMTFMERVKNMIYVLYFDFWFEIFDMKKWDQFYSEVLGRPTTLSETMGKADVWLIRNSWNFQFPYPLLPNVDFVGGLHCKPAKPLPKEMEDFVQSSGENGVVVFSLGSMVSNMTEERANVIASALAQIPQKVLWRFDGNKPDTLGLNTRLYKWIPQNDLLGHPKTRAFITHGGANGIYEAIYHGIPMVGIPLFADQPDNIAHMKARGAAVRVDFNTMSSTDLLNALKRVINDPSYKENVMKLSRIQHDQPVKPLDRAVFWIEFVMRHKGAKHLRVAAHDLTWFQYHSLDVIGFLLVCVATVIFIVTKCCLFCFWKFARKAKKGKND
As to conditions: proportion of overall clearance, reference value in an adult.

The next data set concerns CYP3A. As to conditions: in vivo.
The next data set addresses T3, CYP3A4 (Homo sapiens, UniProt P08684).
T3 construct: the metabolizing enzymes in the liver; host or cells: liver enzymes of the adult, in vivo clearance
As to conditions: proportion of overall clearance, reference value in an adult.

For data set [4] the following is noted: Measured.
[5] abbreviates: proportion of overall clearance, reference value in an adult.
The mark [6] stands for this setting: with co-medication with cyclosporin.

T3 sequence (P08684 whole entry): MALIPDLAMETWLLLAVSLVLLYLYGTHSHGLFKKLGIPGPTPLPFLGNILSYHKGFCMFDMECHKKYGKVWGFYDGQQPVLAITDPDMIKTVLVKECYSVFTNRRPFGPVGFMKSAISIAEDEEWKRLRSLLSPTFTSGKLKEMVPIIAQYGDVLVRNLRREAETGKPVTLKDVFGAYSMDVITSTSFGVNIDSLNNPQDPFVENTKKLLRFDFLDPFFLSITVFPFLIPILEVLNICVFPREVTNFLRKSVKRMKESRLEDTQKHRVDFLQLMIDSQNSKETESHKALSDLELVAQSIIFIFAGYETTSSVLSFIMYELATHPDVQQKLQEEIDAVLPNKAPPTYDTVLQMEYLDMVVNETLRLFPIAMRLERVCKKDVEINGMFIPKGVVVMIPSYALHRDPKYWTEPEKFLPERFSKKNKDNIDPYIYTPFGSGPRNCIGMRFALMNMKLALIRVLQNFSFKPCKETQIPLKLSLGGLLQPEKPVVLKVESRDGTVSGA

For the molecule `Cn1c(=O)c2c(ncn2C)n(C)c1=O` [Caffeine], the “Excretion process: CYP1A2” value on CYP1A2 is reported as “CYP1A2 (85%),”. In addition, the “Free fraction in the plasma” value in data set [1] (reference value in an adult) is given as 70% (albumin). Moreover, the “Excretion process: CYP2E1” value on CYP2E1 is given as “CPY2E1 (13%),”.
As for `O=C(O)c1cn(C2CC2)c2cc(N3CCNCC3)c(F)cc2c1=O` [Ciprofloxacin], the “fraction renally excreted without being changed” value in data set [2] is given as “Approximately ⅔”.
With `CN[C@@H]1[C@@H](O)[C@@H](O[C@@H]2[C@@H](O)[C@H](O[C@H]3O[C@H](CN)[C@@H](O)[C@H](O)[C@H]3O)[C@@H](N)C[C@H]2NC(=O)[C@@H](O)CN)OC[C@]1(C)O` [Isepamicin], in data set [1] (reference value in an adult), the “Free fraction in the plasma” value is on record as 95%. The “Excretion process: Renal” value under setting [5] is on record as “Renal (100%)”.
With `C[C@H]1COc2c(N3CCN(C)CC3)c(F)cc3c(=O)c(C(=O)O)cn1c23` [Levofloxacin], in [1] (reference value in an adult), the “Free fraction in the plasma” value is on record as 70% (Albumin). For the same molecule, the “Excretion process: Renal” value (in vivo) is recorded as “Renal (80%)”. Besides, the “Excretion process: UGT1A1” value on UGT1A1 is “UGT1A1 (10%)”. Besides, in data set [3], the “Excretion process: Billiary” value is “Billiary (10%)”.
Take `O=C1Nc2ccc(Cl)cc2C(c2ccccc2Cl)=NC1O` (stereo not drawn) [Lorazepam]: the “Excretion process: UGT2B7” value at UGT2B7 is on record as “UGT2B7 (100%)”. In data set [1] (plasma), the “Free fraction in the plasma” value was 8% (Albumin).
For `Cc1ncc2n1-c1ccc(Cl)cc1C(c1ccccc1F)=NC2` [Midazolam], the “Free fraction in the plasma” value in data set [1] (plasma) is reported as 2% (Albumin). Further, in the data set on CYP3A, the “Excretion process: CYP3A” value is listed as “CYP3A (100%)”.
As to `CC(=O)Nc1ccc(O)cc1` [Paracetamol], in [1], the “main binding protein in the plasma” value is “Albumin”. Further, in data set [1] (reference value in an adult), the “Free fraction in the plasma” value was 95%.
For `CCCN1CCCC[C@H]1C(=O)Nc1c(C)cccc1C` [Ropivacaine], the “Excretion process: CYP1A2” value on CYP1A2 is “CYP1A2 (90%),”. Moreover, the “main binding protein in the plasma” value in data set [1] is listed as “α1-Glycoprotein”. The “Free fraction in the plasma” value in data set [1] (reference value in an adult) is given as 5%. Under setting [5], the “Excretion process: Renal” value is listed as “Renal (1%)”. Besides, the “Excretion process: CYP3A4” value on CYP3A4 is reported as “CYP3A4 (9%),”.
As to `Cn1c(=O)c2[nH]cnc2n(C)c1=O` [Theophylline], the “Excretion process: CYP1A2” value at CYP1A2 is reported as “CYP1A2 (60%),”. Besides, the “Excretion process: CYP2E1” value at CYP2E1 was “CYP2E1 (25%),”. Moreover, the “Excretion process: Renal” value under setting [5] is “Renal (15%)”.
What is called AUC is concentration integrated over time. The Cmax is the maximum level reached in the sampled fluid or tissue. On to `CC(=O)O[C@H]1C(=O)[C@@]2(C)[C@H]([C@H](OC(=O)c3ccccc3)[C@]3(O)C[C@H](OC(=O)[C@H](O)[C@@H](NC(=O)c4ccccc4)c4ccccc4)C(C)=C1C3(C)C)[C@]1(OC(C)=O)CO[C@@H]1C[C@@H]2O` [paclitaxel, Paclitaxel], for which, in [4] (setting [6]), the AUC is 1.7 ± 0.9 µM·h, the Cmax was 200 ± 100 nM, the “T > 0.1 μM” value is 3.7 ± 2.3 h and the “T > 0.5 μM” value was 7.4 ± 4.4 h. Further, in data set [4] (without co-medication), the AUC was 0.2 ± 0.1 µM·h, the “T > 0.1 μM” value is given as 0 h and the “T > 0.5 μM” value was 1.2 ± 0.9 h. Also, in [4] (without co-medication, rounded-up value), the Cmax is 100 nM.
Regarding Gentamicin, the “Free fraction in the plasma” value in data set [1] (plasma) is 95%.
